Series [1] is described as follows: physchem. Conditions: 1-octanol/PBS, pH 7.4.
A short description of series [2]: Ratio of drug uptake in 129/C57BL/6J mouse brain to plasma at 30 mg/kg, po after 2 hrs by UHPLC/MS/MS analysis. The class given is ADME, organism-based. Conditions: brain and plasma, read-out: BPR.

Structures are written as SMILES.

In general, logD refers to lipophilicity at a set pH, counting ionised and neutral species.

`C[C@H](Nc1cc(F)c(S(=O)(=O)Nc2cscn2)cc1Cl)c1cc(CN2CCC2)ccc1F`: in series [1], the pH-dependent lipophilicity (logD) at 1 h was found to be 1.5. As to `COc1ccc(F)c([C@H](C)Nc2cc(F)c(S(=O)(=O)Nc3cscn3)cc2Cl)c1`, the Kp at 2 h in series [2] turned out to be 0.28. The logD at 1 h in series [1] amounted to 3.4. Molecule `O=S(=O)(Nc1cscn1)c1cc(Cl)c(NCc2cc(CN3CCC3)ccc2F)cc1F` returned a log distribution coefficient (logD) at 1 h in series [1] of 1.4.

Source of the values: ChEMBL document CHEMBL4414586, “Identification of CNS-Penetrant Aryl Sulfonamides as Isoform-Selective NaV1.6 Inhibitors with Efficacy in Mouse Models of Epilepsy” (J Med Chem, 2019).
